In patent US20040082815A1, “Benzophenones, the production thereof and their use for controlling plant pathogenic fungi” (priority 2001, published 2004):

Tested on: Erysiphe graminis forma specialis tritici
Experiment: Activity against powdery mildew of wheat, protective spray test on wheat seedlings cv. Kanzler
Format: in vivo, Erysiphe graminis forma specialis tritici (on wheat)
Conditions: sprayed to runoff 24 h before inoculation, rated visually after 7 days, untreated plants 90% disease
Description: The active ingredients, separately or jointly, were prepared as a 10% strength emulsion in a mixture of 70% by weight of cyclohexanone, 20% by weight of Nekanil® LN (Lutensol® AP6, wetter with emulsifying and dispersing action based on ethoxylated alkylphenols) and 10% by weight of Wettol® EM (nonionic emulsifier based on ethoxylated castor oil) and diluted with water to give the desired concentration.
Use Example 1—Activity Against Powdery Mildew of Wheat (Erysiphe graminis f. sp. […] f. sp. tritici)
Leaves of wheat seedlings cv. “Kanzler” which have grown in pots were sprayed to runoff point with aqueous preparation of active ingredient made with a stock solution composed of 10% of active ingredient, 63% of cyclohexanone and 27% of emulsifier, and, 24 hours after the spray coating had dried on, dusted with spores of powdery mildew of wheat (Erysiphe graminis forma specialis tritici). The test plants were subsequently placed in a greenhouse at temperatures between 20 and 24° C. and a relative atmospheric humidity of 60 to 90%. After 7 days, the extent of the mildew development was determined visually in % disease of the total leaf area.

COc1cc(C)c(C(=O)c2c(Cl)ccc(Cl)c2C)c(OC)c1OC [I.1-02, 2,5-Dichloro-2′,6-dimethyl-4′,5′,6′-trimethoxybenzophenone]
extent of mildew development, % disease of the total leaf area (4 ppm): no disease
extent of mildew development, % disease of the total leaf area (16 ppm): no disease

COc1cc(C)c(C(=O)c2c(F)ccc(F)c2C)c(OC)c1OC [I.5-02, 2,5-Difluoro-2′,6-dimethyl-4′,5′,6′-trimethoxybenzophenone]
extent of mildew development, % disease of the total leaf area (4 ppm): 1%
extent of mildew development, % disease of the total leaf area (16 ppm): no disease
